{"source": "patent US20150148234A1", "about": "“HERBICIDE-RESISTANT SUNFLOWER PLANTS WITH MULTIPLE HERBICIDE RESISTANT ALLELES OF AHASL1 AND METHODS OF USE” (NIDERA S.A., priority 2013, published 2015)", "assay_in_all_cases": "imazapyr whole plant greenhouse test (Example 2)", "assay_type_in_all_cases": "in vivo", "key": {"[1]": {"tested_on": "sunflower genotypes carrying A122T (mean of H2, L3, L4)", "settings": "for Phytotoxicity Index (0-9) 14 days after treatment / biomass accumulation 14 days after treatment, % of untreated / plant height 14 days after treatment, % of untreated: A122T Mean; for height reduction: of the untreated controls", "method": "(§1) Seeds were sown in Petri dishes and, after germination, plantlets were transplanted to pots of 10 cm of diameter in a potting media consisting of equal parts of vermiculite, soil and sand. Plants were grown in a greenhouse under natural light conditions supplemented with 400 W sodium halide lamps to provide a 16 hr daylength. Day/night temperatures were 25 and 20 ° C., respectively. At the V2-V4 stage (Schneiter & Miller (1981) Crop Sci. 21:901-903) 10 plants of each genotype were randomly assigned to each treatment consisting of eight imazapyr doses (0, 40, 80, 160, 240, 320, 400 and 480 g ai/ha, corresponding to untreated, 0.5×, 1×, 2×, 3×, 4×, 5× and 6×, respectively), and a zero-time biomass determination. Experiment was arranged as a randomized block design with a full factorial (sunflower line×treatment) arrangement of treatments and 10 replications.\n(§2) On the day of herbicide application ten plants of each genotype were cut at the cotyledonal node and dried at 60° C. for 48 hrs for zero-time dried weight determination.\n(§3) The remaining plants were maintained for 14 days after imazapyr treatment (DAT) and their height, Phytotoxicity Index (PI) and above ground dry biomass were determined Height was determined as the distance between the cotyledonal node and the apex of each plant. Above ground biomass data from each line were converted to biomass accumulation after application by subtracting the appropriate average zero- time biomass from each sample. Dry biomass data were converted to percentages of the untreated control plants within each line to allow direct comparisons between groups."}, "[2]": {"tested_on": "sunflower genotypes carrying A205V (mean of H1, L1, L2)", "settings": "for Phytotoxicity Index (0-9) 14 days after treatment / biomass accumulation 14 days after treatment, % of untreated / plant height 14 days after treatment, % of untreated: A205V Mean", "method": "as §1, §2, §3"}, "[3]": {"tested_on": "sunflower hybrid H1 (L1 × L2), A205V", "method": "as §1, §2, §3"}}, "note": "Marks after values point to notes of the source that are not given here.", "data": [{"smiles": "CC(C)C1(C)N=C(c2ncccc2C(=O)O)NC1=O", "note": "(centres unmarked) [imazapyr]", "values": [{"measurement": "Phytotoxicity Index (0-9) 14 days after treatment", "setting": "[1]; dose 0.5 (0.5x, 40 g ai/ha)", "value": 0.3}, {"measurement": "biomass accumulation 14 days after treatment, % of untreated", "setting": "[1]; dose 0.5 (0.5x, 40 g ai/ha)", "value": 98.9, "unit": "%"}, {"measurement": "plant height 14 days after treatment, % of untreated", "setting": "[1]; dose 0.5 (0.5x, 40 g ai/ha)", "value": 99.9, "unit": "%"}, {"measurement": "Phytotoxicity Index (0-9) 14 days after treatment", "setting": "[1]; dose 1 (1x, 80 g ai/ha)", "value": 0.3}, {"measurement": "biomass accumulation 14 days after treatment, % of untreated", "setting": "[1]; dose 1 (1x, 80 g ai/ha)", "value": "96.7* %"}, {"measurement": "plant height 14 days after treatment, % of untreated", "setting": "[1]; dose 1 (1x, 80 g ai/ha)", "value": 99.5, "unit": "%"}, {"measurement": "Phytotoxicity Index (0-9) 14 days after treatment", "setting": "[1]; dose 2 (2x, 160 g ai/ha)", "value": 0.3}, {"measurement": "biomass accumulation 14 days after treatment, % of untreated", "setting": "[1]; dose 2 (2x, 160 g ai/ha)", "value": "92.2** %"}, {"measurement": "plant height 14 days after treatment, % of untreated", "setting": "[1]; dose 2 (2x, 160 g ai/ha)", "value": 98.0, "unit": "%"}, {"measurement": "Phytotoxicity Index (0-9) 14 days after treatment", "setting": "[1]; dose 3 (3x, 240 g ai/ha)", "value": 0.3}, {"measurement": "biomass accumulation 14 days after treatment, % of untreated", "setting": "[1]; dose 3 (3x, 240 g ai/ha)", "value": "90.0** %"}, {"measurement": "plant height 14 days after treatment, % of untreated", "setting": "[1]; dose 3 (3x, 240 g ai/ha)", "value": "95.7* %"}, {"measurement": "Phytotoxicity Index (0-9) 14 days after treatment", "setting": "[1]; dose 4 (4x, 320 g ai/ha)", "value": 0.5}, {"measurement": "biomass accumulation 14 days after treatment, % of untreated", "setting": "[1]; dose 4 (4x, 320 g ai/ha)", "value": "85.7** %"}, {"measurement": "plant height 14 days after treatment, % of untreated", "setting": "[1]; dose 4 (4x, 320 g ai/ha)", "value": "94.6** %"}, {"measurement": "Phytotoxicity Index (0-9) 14 days after treatment", "setting": "[1]; dose 5 (5x, 400 g ai/ha)", "value": 0.8}, {"measurement": "biomass accumulation 14 days after treatment, % of untreated", "setting": "[1]; dose 5 (5x, 400 g ai/ha)", "value": "74.3** %"}, {"measurement": "plant height 14 days after treatment, % of untreated", "setting": "[1]; dose 5 (5x, 400 g ai/ha)", "value": "85.4** %"}, {"measurement": "Phytotoxicity Index (0-9) 14 days after treatment", "setting": "[1]; dose 6 (6x, 480 g ai/ha)", "value": 1.2}, {"measurement": "biomass accumulation 14 days after treatment, % of untreated", "setting": "[1]; dose 6 (6x, 480 g ai/ha)", "value": "69.9** %"}, {"measurement": "plant height 14 days after treatment, % of untreated", "setting": "[1]; dose 6 (6x, 480 g ai/ha)", "value": "81.2** %"}, {"measurement": "height reduction", "setting": "[1]; A122T homozygous, 0.5x", "value": 0.1, "unit": "%"}, {"measurement": "height reduction", "setting": "[1]; A122T homozygous, 6x", "value": 18.8, "unit": "%"}, {"measurement": "reduction of biomass weight", "setting": "[1]; A122T homozygous, higher dose (6x)", "value": 25, "unit": "%"}, {"measurement": "Phytotoxicity Index (0-9) 14 days after treatment", "setting": "[2]; dose 0.5 (0.5x, 40 g ai/ha)", "value": 0}, {"measurement": "biomass accumulation 14 days after treatment, % of untreated", "setting": "[2]; dose 0.5 (0.5x, 40 g ai/ha)", "value": "95.3* %"}, {"measurement": "plant height 14 days after treatment, % of untreated", "setting": "[2]; dose 0.5 (0.5x, 40 g ai/ha)", "value": 99.6, "unit": "%"}, {"measurement": "Phytotoxicity Index (0-9) 14 days after treatment", "setting": "[2]; dose 1 (1x, 80 g ai/ha)", "value": 0}, {"measurement": "biomass accumulation 14 days after treatment, % of untreated", "setting": "[2]; dose 1 (1x, 80 g ai/ha)", "value": "85.5** %"}, {"measurement": "plant height 14 days after treatment, % of untreated", "setting": "[2]; dose 1 (1x, 80 g ai/ha)", "value": 99.2, "unit": "%"}, {"measurement": "Phytotoxicity Index (0-9) 14 days after treatment", "setting": "[2]; dose 2 (2x, 160 g ai/ha)", "value": "2.2*"}, {"measurement": "biomass accumulation 14 days after treatment, % of untreated", "setting": "[2]; dose 2 (2x, 160 g ai/ha)", "value": "62.8** %"}, {"measurement": "plant height 14 days after treatment, % of untreated", "setting": "[2]; dose 2 (2x, 160 g ai/ha)", "value": "73.7** %"}, {"measurement": "Phytotoxicity Index (0-9) 14 days after treatment", "setting": "[2]; dose 3 (3x, 240 g ai/ha)", "value": "5.1**"}, {"measurement": "biomass accumulation 14 days after treatment, % of untreated", "setting": "[2]; dose 3 (3x, 240 g ai/ha)", "value": "48.1** %"}, {"measurement": "plant height 14 days after treatment, % of untreated", "setting": "[2]; dose 3 (3x, 240 g ai/ha)", "value": "50.1** %"}, {"measurement": "Phytotoxicity Index (0-9) 14 days after treatment", "setting": "[2]; dose 4 (4x, 320 g ai/ha)", "value": "7.4**"}, {"measurement": "biomass accumulation 14 days after treatment, % of untreated", "setting": "[2]; dose 4 (4x, 320 g ai/ha)", "value": "33.5** %"}, {"measurement": "plant height 14 days after treatment, % of untreated", "setting": "[2]; dose 4 (4x, 320 g ai/ha)", "value": "31.5** %"}, {"measurement": "Phytotoxicity Index (0-9) 14 days after treatment", "setting": "[2]; dose 5 (5x, 400 g ai/ha)", "value": "8.2**"}, {"measurement": "biomass accumulation 14 days after treatment, % of untreated", "setting": "[2]; dose 5 (5x, 400 g ai/ha)", "value": "28.7** %"}, {"measurement": "plant height 14 days after treatment, % of untreated", "setting": "[2]; dose 5 (5x, 400 g ai/ha)", "value": "27.7** %"}, {"measurement": "Phytotoxicity Index (0-9) 14 days after treatment", "setting": "[2]; dose 6 (6x, 480 g ai/ha)", "value": "8.2**"}, {"measurement": "biomass accumulation 14 days after treatment, % of untreated", "setting": "[2]; dose 6 (6x, 480 g ai/ha)", "value": "26.1** %"}, {"measurement": "plant height 14 days after treatment, % of untreated", "setting": "[2]; dose 6 (6x, 480 g ai/ha)", "value": "30.4** %"}, {"measurement": "height reduction, value reached", "setting": "[2]; A205V homozygous, from 2x to 6x, of the untreated controls", "value": 69.6, "unit": "%"}, {"measurement": "Phytotoxicity Index (0-9) 14 days after treatment", "setting": "[3]; dose 0.5 (0.5x, 40 g ai/ha)", "value": 0}, {"measurement": "biomass accumulation 14 days after treatment, % of untreated", "setting": "[3]; dose 0.5 (0.5x, 40 g ai/ha)", "value": 95.0, "unit": "%"}, {"measurement": "plant height 14 days after treatment, % of untreated", "setting": "[3]; dose 0.5 (0.5x, 40 g ai/ha)", "value": 99.5, "unit": "%"}, {"measurement": "Phytotoxicity Index (0-9) 14 days after treatment", "setting": "[3]; dose 1 (1x, 80 g ai/ha)", "value": 0}, {"measurement": "biomass accumulation 14 days after treatment, % of untreated", "setting": "[3]; dose 1 (1x, 80 g ai/ha)", "value": 89.6, "unit": "%"}, {"measurement": "plant height 14 days after treatment, % of untreated", "setting": "[3]; dose 1 (1x, 80 g ai/ha)", "value": 99.5, "unit": "%"}, {"measurement": "Phytotoxicity Index (0-9) 14 days after treatment", "setting": "[3]; dose 2 (2x, 160 g ai/ha)", "value": 1.8}, {"measurement": "biomass accumulation 14 days after treatment, % of untreated", "setting": "[3]; dose 2 (2x, 160 g ai/ha)", "value": 75.5, "unit": "%"}, {"measurement": "plant height 14 days after treatment, % of untreated", "setting": "[3]; dose 2 (2x, 160 g ai/ha)", "value": 78.6, "unit": "%"}, {"measurement": "Phytotoxicity Index (0-9) 14 days after treatment", "setting": "[3]; dose 3 (3x, 240 g ai/ha)", "value": 6.4}, {"measurement": "biomass accumulation 14 days after treatment, % of untreated", "setting": "[3]; dose 3 (3x, 240 g ai/ha)", "value": 60.4, "unit": "%"}, {"measurement": "plant height 14 days after treatment, % of untreated", "setting": "[3]; dose 3 (3x, 240 g ai/ha)", "value": 48.4, "unit": "%"}, {"measurement": "Phytotoxicity Index (0-9) 14 days after treatment", "setting": "[3]; dose 4 (4x, 320 g ai/ha)", "value": 8.0}, {"measurement": "biomass accumulation 14 days after treatment, % of untreated", "setting": "[3]; dose 4 (4x, 320 g ai/ha)", "value": 46.5, "unit": "%"}, {"measurement": "plant height 14 days after treatment, % of untreated", "setting": "[3]; dose 4 (4x, 320 g ai/ha)", "value": 28.9, "unit": "%"}, {"measurement": "Phytotoxicity Index (0-9) 14 days after treatment", "setting": "[3]; dose 5 (5x, 400 g ai/ha)", "value": 8.9}, {"measurement": "biomass accumulation 14 days after treatment, % of untreated", "setting": "[3]; dose 5 (5x, 400 g ai/ha)", "value": 38.9, "unit": "%"}, {"measurement": "plant height 14 days after treatment, % of untreated", "setting": "[3]; dose 5 (5x, 400 g ai/ha)", "value": 25.3, "unit": "%"}, {"measurement": "Phytotoxicity Index (0-9) 14 days after treatment", "setting": "[3]; dose 6 (6x, 480 g ai/ha)", "value": 9.0}]}]}
